# How the values were obtained:
# Apis mellifera = conditions: acute, mortality
# Hypoaspis aculeifer = conditions: chronic/long-term; mortality
# Elodea callitrichoides = conditions: chronic/long-term; duration: 42 days
# Oryctolagus sp. = conditions: chronic
# Pimephales promelas = conditions: mortality
# Daphnia magna = conditions: chronic/long-term; duration: 21 days; mortality
# Tagia sp. = conditions: chronic/long-term; growth
# Rattus norvegicus = conditions: acute; oral; mortality
smiles,measurement,setting,value
CNC1=C(c2cccc(C(F)(F)F)c2)C(=O)C(c2ccccc2)O1 (configuration not stated) [Flurtamone],LD50,Apis mellifera; dermal,> 100 µg/piece
same,LD50,"Apis mellifera; oral, unspecified",> 105 µg/piece
same,NOEC,Hypoaspis aculeifer,89 mg/kg
same,NOEC,Elodea callitrichoides,0.001 mg/L
same,NOAEL,Oryctolagus sp.,20 mg/kg-day
same,LC50,"Pimephales promelas; acute, duration: 96 hours",6.64 µg/mL
same,NOEC,"Pimephales promelas; chronic/long-term, duration: 35 days",0.188 mg/L
same,NOEC,Daphnia magna,0.071 mg/L
same,NOEC,Tagia sp.,47.5 mg/kg
same,LD50,"Colinus virginianus; acute, oral, mortality",> 2530 mg/kg
same,NOEC,Colinus virginianus; chronic,7.3 mg/kg-day
same,LD50,Rattus norvegicus,> 5000 mg/kg

# From EPA's ToxValDB 9.5 (doi:10.2903/j.efsa.2016.4498)
